According to PubChem BioAssay (NCI):
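Values below derive from 48-hour exposures of cells grown in 96-well plates, with endpoints linearly interpolated between the two concentrations bracketing the appropriate inhibition level. TGI: concentration producing complete growth inhibition.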

Legend:
Assay in all cases: inhibition of tumour cell growth, NCI panel, 48 h
ACHN renal = tested on: ACHN renal
SW-620 colon = tested on: SW-620 colon
MDA-MB-435 = tested on: MDA-MB-435
OVCAR-8 ovarian = tested on: OVCAR-8 ovarian
U251 CNS = tested on: U251 CNS
SR leukemia = tested on: SR leukemia
MCF7 breast = tested on: MCF7 breast
NCI-H460 lung = tested on: NCI-H460 lung
MDA-N = tested on: MDA-N
SF-539 CNS = tested on: SF-539 CNS
UACC-257 melanoma = tested on: UACC-257 melanoma

Compound	TGI (ACHN renal) [µM]	TGI (SW-620 colon) [µM]	TGI (MDA-MB-435) [µM]	TGI (OVCAR-8 ovarian) [µM]	TGI (U251 CNS) [µM]	TGI (SR leukemia) [µM]	TGI (MCF7 breast) [µM]	TGI (NCI-H460 lung) [µM]	TGI (MDA-N) [µM]	TGI (SF-539 CNS) [µM]	TGI (UACC-257 melanoma) [µM]
CCOP(C)(=O)C(N)Cc1ccc(OC)c(OC)c1 (stereo not given)	> 100	> 100	> 100	> 100	> 100	> 100	> 100	> 100	> 100	> 100	
CON(C)C(=O)CNC(=O)OCC1c2ccccc2-c2ccccc21	> 100	> 100	> 100	> 100	> 100	69.6	> 100	> 100	> 100	> 100	> 100
CCN(CC)C(=O)Cn1c(C)cc2ccccc21	> 100	> 100	> 100	> 100	> 100	> 100	> 100	> 100	> 100	> 100	> 100
CSc1ncnc2c1ncn2C1CC(Oc2ccc(C)cc2)C(COc2ccc(C)cc2)O1 (stereo not given)	> 100	> 100	> 100	> 100	> 100	> 100	> 100	> 100	> 100	> 100	> 100
O=C1C(CN2CCCCC2)CCC1CN1CCCCC1 (stereo not given)	47.5	16	51.8	> 68.9	> 73.2	3.75	43	> 100	22.2	56.1	47.1
O=C1/C(=C/c2ccc([N+](=O)[O-])cc2)C(=O)N(c2ccccc2)C1c1ccccc1 (stereo not given)	> 10	> 10	> 10	> 10	> 10	> 10	> 10	> 10	> 10	> 10	> 10
Cc1ccc(SCC(CF)OC(C)n2cnc3c(=O)[nH]c(N)nc32)cc1 (stereo not given)	> 100	> 100	> 100	> 100	> 100	> 100	> 100	> 100	> 100	> 100	> 100
COc1cc(CNCc2cc(OC)c(OC)c(OC)c2)cc(OC)c1OC	> 10	> 10	> 10	> 10	> 10	> 9.12	> 10	> 10	> 10	> 10	> 10
CCOC(=O)C(=Cc1[nH]c2ccccc2c1-c1c[nH]c2ccccc12)C(=O)OCC	24.5		18.3	25.8	24.3	32.7	22.2	29.8	26.5	39.1	23.8
CCOCc1nc2c(OC)cc(-c3nc4ccc(N5CCN(C)CC5)cc4[nH]3)c(OC)c2[nH]1	> 100	> 100	45.8	> 100	> 100	59.7	> 100	65.1	35.9	36.1	34.4
COC(CNC(=O)C(C)NC(=O)CCc1ccccc1)OC (stereo not given)	> 100	> 100	> 100	> 100	> 100	> 100	> 100	> 100	> 100	> 100	> 100
Cc1ccc(N=Nc2c(O)ccc3cc(S(=O)(=O)O)cc(S(=O)(=O)O)c23)cc1	> 100	> 100	> 100	> 100	> 100	> 100	> 100	> 100	> 100	> 100	> 100
CC(C)=CCC/C(C)=C/C=C/C(C)=C/C=C/C(C)=C/C=C/C=C(C)/C=C/C=C(C)/C=C/[C@H]1C(C(C)(C)O)CC[C@]1(C)O (stereo not given in full)	45.5	65.8	61.2	52.2	47.4	54.4	35.5	> 100	81.6	> 100	59.2
COc1cccc(-c2ccc3c4c2O[C@H]2C(=O)CC[C@@]5(O)[C@@H](C3)N(CC3CC3)CC[C@]425)c1	35.9	29.2	25.6	34.3	29.9	37.8	31	50.7	39.3	29	43.2
O=C1/C(=N/O)Cc2c(Br)ccc(Br)c21	> 100	> 100	> 100	> 100	> 100	74.4	> 100	> 100	> 100	> 100	> 100
CCN(CC)C(=S)N/N=C(/C)c1cccc(/C(C)=N\NC(=S)N(CC)CC)n1	4.61	15.2	14.9	3.19	8.74	2.4	5.3	6.36	21.4	3.28	11
O=C1CC(=Nc2ccc(Cl)cc2)C(c2ccccc2)N1c1ccccc1 (stereo not given)	> 100	> 100	6.32		> 100	45.5	> 100	> 100	10.8	94.8	> 100
COc1cc(/C=C2/C[C@H]3[C@@H]4CC=C5C[C@@H](O)CC[C@]5(C)[C@H]4CC[C@]3(C)NC2=O)cc(OC)c1OC	58	> 100	> 100	> 70.8	> 60.1	> 100	> 77.5	25.9	> 100	> 100	> 71.5
